# Measurements taken from patent publication US10112941B2, “Tricyclic compounds as anticancer agents” (BRISTOL-MYERS SQUIBB COMPANY, priority 2013, dated 2018).
# pIC50: −log10 of the molar value.
# Target: BRD4 (Homo sapiens, UniProt O60885)
# Assay: Time Resolved Fluorescence Resonance Energy Transfer (TR-FRET) binding assay, BRD4
# Conditions: one of the FRET assays described; read-out: FRET BRD4 IC50
row,SMILES,pIC50
1,"Cc1nnn(C)c1-c1cnc2c3ccc(C(C)(C)O)cc3n(C(c3cccnn3)C3CCOCC3)c2c1 (single isomer, unassigned) [Example 296]",> 8.30
2,"Cc1nnn(C)c1-c1cnc2c3ccc(C(C)(C)O)cc3n(C(c3cc(Cl)ccn3)C3CCOCC3)c2c1 (single isomer, unassigned) [Example 297]",> 8.30
3,"Cc1nnn(C)c1-c1cnc2c3ccc(C(C)(C)O)cc3n(C(c3cc(Cl)ccn3)C3CCOCC3)c2c1 (single isomer, unassigned) [Example 298]",> 7.60
4,"Cc1noc(C(C2CCOCC2)n2c3cc(C(C)(C)O)ccc3c3ncc(-c4c(C)nnn4C)cc32)n1 (single isomer, unassigned) [Example 299]",> 8.30
5,"Cc1noc(C(C2CCOCC2)n2c3cc(C(C)(C)O)ccc3c3ncc(-c4c(C)nnn4C)cc32)n1 (single isomer, unassigned) [Example 300]",> 7.60
6,"Cc1cccnc1C(C1CCOCC1)n1c2cc(C(C)(C)O)ccc2c2ncc(-c3c(C)nnn3C)cc21 (single isomer, unassigned) [Example 301]",> 8.30
7,"Cc1cccnc1C(C1CCOCC1)n1c2cc(C(C)(C)O)ccc2c2ncc(-c3c(C)nnn3C)cc21 (single isomer, unassigned) [Example 302]",> 8.30
8,"Cc1nnn(C)c1-c1cnc2c3ccc(C(C)(C)O)cc3n(C(c3ncccc3Cl)C3CCOCC3)c2c1 (single isomer, unassigned) [Example 303]",> 8.30
9,"Cc1nnn(C)c1-c1cnc2c3ccc(C(C)(C)O)cc3n(C(c3ncccc3Cl)C3CCOCC3)c2c1 (single isomer, unassigned) [Example 304]",> 8.30
10,"Cc1nnn(C)c1-c1cnc2c3ccc(C(C)(C)O)c(F)c3n(C(c3ncccc3F)C3CCOCC3)c2c1 (single isomer, unassigned) [Example 305]",> 8.30
11,"Cc1cc(C(C2CCOCC2)n2c3cc(C(C)(C)O)ccc3c3ncc(-c4c(C)noc4C)cc32)no1 (single isomer, unassigned) [Example 306]",> 8.30
12,"Cc1cc(C(C2CCOCC2)n2c3cc(C(C)(C)O)ccc3c3ncc(-c4c(C)noc4C)cc32)no1 (single isomer, unassigned) [Example 307]",> 7.60
13,"[2H]C([2H])([2H])c1nnn(C)c1-c1cnc2c3ccc(C(C)(C)O)cc3n(C(c3ccncc3F)C3CCOCC3)c2c1 (single isomer, unassigned) [Example 310]",> 8.30
14,"[2H]C([2H])([2H])c1nnn(C)c1-c1cnc2c3ccc(C(C)(C)O)cc3n(C(c3ccncc3F)C3CCOCC3)c2c1 (single isomer, unassigned) [Example 311]",> 8.30
15,"[2H]C([2H])([2H])c1nnn(C)c1-c1cnc2c3c(OC)cc(C(C)(C)O)cc3n(C(c3cc(C)on3)C3CCOCC3)c2c1 (single isomer, unassigned) [Example 312]",> 8.30
16,"[2H]C([2H])([2H])c1nnn(C)c1-c1cnc2c3cc(F)c(C(C)(C)O)cc3n(C(c3cc(C)on3)C3CCOCC3)c2c1 (single isomer, unassigned) [Example 313]",> 8.30
17,"[2H]C([2H])([2H])c1nnn(C)c1-c1cnc2c3ccc(C(C)(C)O)c(F)c3n(C(c3cc(C)on3)C3CCOCC3)c2c1 (single isomer, unassigned) [Example 314]",> 8.30
18,"[2H]C([2H])([2H])c1nnn(C)c1-c1cnc2c3ccc(C(C)(C)O)cc3n(C(c3ncccc3F)C3CCOCC3)c2c1 (single isomer, unassigned) [Example 315]",> 8.30
19,"[2H]C([2H])([2H])c1nnn(C)c1-c1cnc2c3ccc(C(C)(C)O)cc3n(C(c3ncccc3F)C3CCOCC3)c2c1 (single isomer, unassigned) [Example 316]",> 8.30
20,"[2H]C([2H])([2H])c1nnn(C)c1-c1cnc2c3ccc(C(C)(C)O)cc3n(C(c3ccc(F)cn3)C3CCOCC3)c2c1 (single isomer, unassigned) [Example 317]",> 8.30
21,"[2H]C([2H])([2H])c1nnn(C)c1-c1cnc2c3ccc(C(C)(C)O)cc3n(C(c3ncccc3C(F)(F)F)C3CCOCC3)c2c1 (single isomer, unassigned) [Example 318]",> 8.30
22,"[2H]C([2H])([2H])c1nnn(C)c1-c1cnc2c3ccc(C(C)(C)O)cc3n(C(c3ncccc3C(F)(F)F)C3CCOCC3)c2c1 (single isomer, unassigned) [Example 319]",> 8.30
23,"[2H]C([2H])([2H])c1nnn(C)c1-c1cnc2c3ccc(C(C)(C)O)cc3n(C(c3ccc(Cl)cn3)C3CCOCC3)c2c1 (single isomer, unassigned) [Example 320]",> 8.30
24,"[2H]C([2H])([2H])c1nnn(C)c1-c1cnc2c3ccc(C(C)(C)O)cc3n(C(c3ncccc3Cl)C3CCOCC3)c2c1 (single isomer, unassigned) [Example 321]",> 8.30

row,SMILES,pIC50
1,"[2H]C([2H])([2H])c1nnn(C)c1-c1cnc2c3ccc(C(C)(C)O)cc3n(C(c3ncccc3Cl)C3CCOCC3)c2c1 (single isomer, unassigned) [Example 322]",> 8.30
2,"[2H]C([2H])([2H])c1nnn(C)c1-c1cnc2c3ccc(C(C)(C)O)c(F)c3n(C(c3ccc(F)cn3)C3CCOCC3)c2c1 (single isomer, unassigned) [Example 323]",> 7.60
3,"[2H]C([2H])([2H])c1nnn(C)c1-c1cnc2c3ccc(C(C)(C)O)c(F)c3n(C(c3ccc(F)cn3)C3CCOCC3)c2c1 (single isomer, unassigned) [Example 324]",> 7.60
4,"[2H]C([2H])([2H])c1nnn(C)c1-c1cnc2c3cc(F)c(C(C)(C)O)cc3n(C(c3cc(OC)ccn3)C3CCOCC3)c2c1 (single isomer, unassigned) [Example 325]",> 8.30
5,"[2H]C([2H])([2H])c1nnn(C)c1-c1cnc2c3cc(F)c(C(C)(C)O)cc3n(C(c3cc(OC)ccn3)C3CCOCC3)c2c1 (single isomer, unassigned) [Example 326]",> 7.60
6,"Cc1cc(C(C2CCOCC2)n2c3cc(C(C)(C)O)ccc3c3ncc(-c4c(C)nnn4C)cc32)n(C)n1 (single isomer, unassigned) [Example 341, 2-[3-(Dimethyl-1H-1,2,3-triazol-5-yl)-5-[(1,3-dimethyl-1H-pyrazol-5-yl)(oxan-4-yl)methyl]-5H-pyrido[3,2-b]indol-7-yl]propan-2-ol]",> 8.30
7,"Cc1cc(C(C2CCOCC2)n2c3cc(C(C)(C)O)ccc3c3ncc(-c4c(C)nnn4C)cc32)n(C)n1 (single isomer, unassigned) [Example 342, 2-[3-(Dimethyl-1H-1,2,3-triazol-5-yl)-5-[(1,3-dimethyl-1H-pyrazol-5-yl)(oxan-4-yl)methyl]-5H-pyrido[3,2-b]indol-7-yl]propan-2-ol]",> 7.60
8,"Cc1noc(C)c1-c1cnc2c3ccc(C(C)(C)O)cc3n(C(c3ncccc3F)C3CCOCC3)c2c1 (single isomer, unassigned) [Example 345, 2-[3-(Dimethyl-1,2-oxazol-4-yl)-5-[(3-fluoropyridin-2-yl)(oxan-4-yl)methyl]-5H-pyrido[3,2-b]indol-7-yl]propan-2-ol]",> 8.30
9,"Cc1noc(C)c1-c1cnc2c3ccc(C(C)(C)O)cc3n(C(c3ncccc3F)C3CCOCC3)c2c1 (single isomer, unassigned) [Example 346, 2-[3-(Dimethyl-1,2-oxazol-4-yl)-5-[(3-fluoropyridin-2-yl)(oxan-4-yl)methyl]-5H-pyrido[3,2-b]indol-7-yl]propan-2-ol]",> 8.30
10,"Cc1noc(C)c1-c1cnc2c3ccc(C(O)CC#N)cc3n([C@H](c3ccccc3)C3CCOCC3)c2c1 (single isomer, unassigned) [Example 373]",> 8.30
11,"Cc1noc(C)c1-c1cnc2c3ccc(C(O)CC#N)cc3n([C@H](c3ccccc3)C3CCOCC3)c2c1 (single isomer, unassigned) [Example 374]",> 8.30
12,"Cc1nnn(C)c1-c1cnc2c3ccc(C(C)(C)O)cc3n(C(CC3CC3)C3CCOCC3)c2c1 (single isomer, unassigned) [Example 394]",> 8.30
13,"Cc1nnn(C)c1-c1cnc2c3ccc(C(C)(C)O)cc3n(C(CC3CC3)C3CCOCC3)c2c1 (single isomer, unassigned) [Example 395]",> 8.30
14,"Cc1nnn(C)c1-c1cnc2c3ccc(C(C)(C)O)cc3n(C(c3ccc(Cl)cc3)C3CCOCC3)c2c1 (single isomer, unassigned) [Example 398]",> 8.30
15,"Cc1nnn(C)c1-c1cnc2c3ccc(C(C)(C)O)cc3n(C(c3ccc(Cl)cc3)C3CCOCC3)c2c1 (single isomer, unassigned) [Example 399]",> 8.30
16,"Cc1nnn(C)c1-c1cnc2c3ccc(C(C)(C)O)cc3n(C(c3cccc(Cl)c3)C3CCOCC3)c2c1 (single isomer, unassigned) [Example 400]",> 8.30
17,"Cc1nnn(C)c1-c1cnc2c3ccc(C(C)(C)O)cc3n(C(c3cccc(Cl)c3)C3CCOCC3)c2c1 (single isomer, unassigned) [Example 401]",> 8.30
18,"Cc1nnn(C)c1-c1cnc2c3ccc(C(C)(C)O)cc3n(C(c3ccccc3Cl)C3CCOCC3)c2c1 (single isomer, unassigned) [Example 402]",> 8.30
19,"Cc1nnn(C)c1-c1cnc2c3ccc(C(C)(C)O)cc3n(C(c3ccccc3Cl)C3CCOCC3)c2c1 (single isomer, unassigned) [Example 403]",> 8.30
20,"Cc1nnn(C)c1-c1cnc2c3ccc(C(C)(O)C4CC4)cc3n([C@H](c3ccccc3)C3CCOCC3)c2c1 (single isomer, unassigned) [Example 422]",> 8.30
21,"Cc1nnn(C)c1-c1cnc2c3ccc(C(C)(O)C4CC4)cc3n([C@H](c3ccccc3)C3CCOCC3)c2c1 (single isomer, unassigned) [Example 423]",> 8.30
22,"Cc1nnn(C)c1-c1cnc2c3ccc(C(C)(O)C4CC4)c(F)c3n([C@H](c3ccccc3F)C3CCOCC3)c2c1 (single isomer, unassigned) [Example 435]",> 8.30
23,"[2H]C([2H])([2H])c1nnn(C)c1-c1cnc2c3ccc(C(C)(O)C4CC4)c(F)c3n([C@H](c3ccccc3F)C3CCOCC3)c2c1 (single isomer, unassigned) [Example 438]",> 8.30
24,"Cc1nnn(C)c1-c1cnc2c3ccc(C(C)(O)C(F)(F)F)c(F)c3n([C@H](c3ccccc3)C3CCOCC3)c2c1 (single isomer, unassigned) [Example 441]",> 8.30
